Patent US4336375A, “Cephalosporanic acid derivatives” (American Cyanamid Company, priority 1980, dated 1982)
Values after ≈ are worked out from the molar mass of the structure shown. Like-named read-outs stand apart in the source and are kept apart here.

What was measured:
Type in all cases: cell-based
[1] = test system: Pseudomonas aeruginosa G236; test: In vitro MIC, agar dilution, Pseudomonas aeruginosa G236; settings: read-out: Minimal Inhibitory Concentration
Protocol: (§1) The in vitro activity of representative compounds of the present invention are given in the following Table I in terms of minimal inhibitory concentration. The test used was the standard agar dilution test using a Steers multiple inocula replicator and incubating at 35° C. for 18 hours in conventional nutrient agar.

[2] = test system: Pseudomonas aeruginosa PD05141; test: In vitro MIC, agar dilution, Pseudomonas aeruginosa PD05141; settings: read-out: Minimal Inhibitory Concentration
Protocol: as §1

[3] = test system: Pseudomonas aeruginosa 12-4-4; test: In vitro MIC, agar dilution, Pseudomonas aeruginosa 12-4-4; settings: read-out: Minimal Inhibitory Concentration
Protocol: as §1

[4] = test system: Pseudomonas aeruginosa UCS 76-13; test: In vitro MIC, agar dilution, Pseudomonas aeruginosa UCS 76-13; settings: read-out: Minimal Inhibitory Concentration
Protocol: as §1

[5] = test system: Klebsiella pneumoniae MA75-1; test: In vitro MIC, agar dilution, Klebsiella pneumoniae MA75-1; settings: read-out: Minimal Inhibitory Concentration
Protocol: as §1

[6] = test system: Klebsiella pneumoniae W75-2; test: In vitro MIC, agar dilution, Klebsiella pneumoniae W75-2; settings: read-out: Minimal Inhibitory Concentration
Protocol: as §1

[7] = test system: Klebsiella pneumoniae W75-4; test: In vitro MIC, agar dilution, Klebsiella pneumoniae W75-4; settings: read-out: Minimal Inhibitory Concentration
Protocol: as §1

[8] = test system: Klebsiella pneumoniae UR76-1; test: In vitro MIC, agar dilution, Klebsiella pneumoniae UR76-1; settings: read-out: Minimal Inhibitory Concentration
Protocol: as §1

[9] = test system: Klebsiella pneumoniae AD; test: In vitro MIC, agar dilution, Klebsiella pneumoniae AD; settings: read-out: Minimal Inhibitory Concentration
Protocol: as §1

[10] = test system: Enterobacter aerogenes UR76-3; test: In vitro MIC, agar dilution, Enterobacter aerogenes UR76-3; settings: Klebsiella aerogenes, read-out: Minimal Inhibitory Concentration
Protocol: as §1

[11] = test system: Enterobacter cloacae MA75-1; test: In vitro MIC, agar dilution, Enterobacter cloacae MA75-1; settings: read-out: Minimal Inhibitory Concentration
Protocol: as §1

[12] = test system: Enterobacter cloacae OSU75-2; test: In vitro MIC, agar dilution, Enterobacter cloacae OSU75-2; settings: read-out: Minimal Inhibitory Concentration
Protocol: as §1

[13] = test system: Serratia K101; test: In vitro MIC, agar dilution, Serratia K101; settings: read-out: Minimal Inhibitory Concentration
Protocol: as §1

[14] = test system: Serratia marcens K77-1; test: In vitro MIC, agar dilution, Serratia marcens K77-1; settings: read-out: Minimal Inhibitory Concentration
Protocol: as §1

[15] = test system: Serratia marcens QHC77-2; test: In vitro MIC, agar dilution, Serratia marcens QHC77-2; settings: read-out: Minimal Inhibitory Concentration
Protocol: as §1

[16] = test system: Proteus vulgaris N74-1; test: In vitro MIC, agar dilution, Proteus vulgaris N74-1; settings: N741, 35° C., 18 hours, nutrient agar, read-out: Minimal Inhibitory Concentration
Protocol: as §1

[17] = test system: Proteus morganii K72; test: In vitro MIC, agar dilution, Proteus morganii K72; settings: Morganella morganii, read-out: Minimal Inhibitory Concentration
Protocol: as §1

[18] = test system: Proteus rettgeri N76-1; test: In vitro MIC, agar dilution, Proteus rettgeri N76-1; settings: Providencia rettgeri, read-out: Minimal Inhibitory Concentration
Protocol: as §1

[19] = test system: Escherichia coli ESS22-31; test: In vitro MIC, agar dilution, Escherichia coli ESS22-31; settings: read-out: Minimal Inhibitory Concentration
Protocol: as §1

[20] = test system: Escherichia coli W75-1; test: In vitro MIC, agar dilution, Escherichia coli W75-1; settings: W751, 35° C., 18 hours, nutrient agar, read-out: Minimal Inhibitory Concentration
Protocol: as §1

[21] = test system: Escherichia coli OSU75-1; test: In vitro MIC, agar dilution, Escherichia coli OSU75-1; settings: OSU751, 35° C., 18 hours, nutrient agar, read-out: Minimal Inhibitory Concentration
Protocol: as §1

[22] = test system: Escherichia coli 311; test: In vitro MIC, agar dilution, Escherichia coli 311; settings: 35° C., 18 hours, nutrient agar, read-out: Minimal Inhibitory Concentration
Protocol: as §1

[23] = test system: Staphylococcus aureus Q74-1; test: In vitro MIC, agar dilution, Staphylococcus aureus Q74-1; settings: read-out: Minimal Inhibitory Concentration
Protocol: as §1

[24] = test system: Staphylococcus aureus Q74-6; test: In vitro MIC, agar dilution, Staphylococcus aureus Q74-6; settings: read-out: Minimal Inhibitory Concentration
Protocol: as §1

[25] = test system: Enterococcus SM77-15; test: In vitro MIC, agar dilution, Enterococcus SM77-15; settings: read-out: Minimal Inhibitory Concentration
Protocol: as §1

[26] = Pseudomonas aeruginosa G236, agar dilution, 35° C., 18 hours, nutrient agar
[27] = Pseudomonas aeruginosa PD05141, agar dilution, 35° C., 18 hours, nutrient agar
[28] = 1244, Pseudomonas aeruginosa 12-4-4, agar dilution, 35° C., 18 hours, nutrient agar
[29] = UCS7613, Pseudomonas aeruginosa UCS 76-13, agar dilution, 35° C., 18 hours, nutrient agar
[30] = MA751, Klebsiella pneumoniae MA75-1, agar dilution, 35° C., 18 hours, nutrient agar
[31] = W752, Klebsiella pneumoniae W75-2, agar dilution, 35° C., 18 hours, nutrient agar
[32] = W754, Klebsiella pneumoniae W75-4, agar dilution, 35° C., 18 hours, nutrient agar
[33] = UR761, Klebsiella pneumoniae UR76-1, agar dilution, 35° C., 18 hours, nutrient agar
[34] = Klebsiella pneumoniae AD, agar dilution, 35° C., 18 hours, nutrient agar
[35] = UR763, Enterobacter aerogenes UR76-3, agar dilution, 35° C., 18 hours, nutrient agar
[36] = Enterobacter cloacae, MA751, 18 h
[37] = OSU752, Enterobacter cloacae OSU75-2, agar dilution, 35° C., 18 hours, nutrient agar
[38] = Serratia K101, agar dilution, 35° C., 18 hours, nutrient agar
[39] = K771, Serratia marcens K77-1, agar dilution, 35° C., 18 hours, nutrient agar
[40] = QHC772, Serratia marcens QHC77-2, agar dilution, 35° C., 18 hours, nutrient agar
[41] = Proteus morganii K72, agar dilution, 35° C., 18 hours, nutrient agar
[42] = N761, Proteus rettgeri N76-1, agar dilution, 35° C., 18 hours, nutrient agar
[43] = ESS2231, Escherichia coli ESS22-31, agar dilution, 35° C., 18 hours, nutrient agar
[44] = Q741, Staphylococcus aureus Q74-1, agar dilution, 35° C., 18 hours, nutrient agar
[45] = Q746, Staphylococcus aureus Q74-6, agar dilution, 35° C., 18 hours, nutrient agar
[46] = SM7715, Enterococcus SM77-15, agar dilution, 35° C., 18 hours, nutrient agar

Compound | MIC [1, 26] [µg/mL] | MIC [2, 27] [µg/mL] | MIC [3, 28] [µg/mL] | MIC [4, 29] [µg/mL] | MIC [5, 30] [µg/mL] | MIC [6, 31] [µg/mL] | MIC [7, 32] [µg/mL] | MIC [8, 33] [µg/mL] | MIC [9, 34] [µg/mL] | MIC [10, 35] [µg/mL] | MIC [11, 36] [µg/mL] | MIC [12, 37] [µg/mL] | MIC [13, 38] [µg/mL] | MIC [14, 39] [µg/mL] | MIC [15, 40] [µg/mL] | MIC [16] [µg/mL] | MIC [17, 41] [µg/mL] | MIC [20] [µg/mL] | MIC [21] [µg/mL] | MIC [22] [µg/mL] | also measured
CCN1CCN(C(=O)NC(C(=O)NC2C(=O)N3C(C(=O)O)=C(CSc4n[nH]c(-n5cccn5)n4)CS[C@H]23)c2ccc(O)cc2)C(=O)C1=O (some centres unmarked) [Compound VI, 7-[2-(4-Ethyl-2,3-dioxo-1-piperazinecarboxamido)-2-(p-hydroxyphenyl)acetamido]-3-[5-(1-pyrazolyl)-1,2,4-triazol-3-ylthiomethyl]-3-cephem-4-carboxylic acid] | 32 (≈ 45.9 µM) | 64 (≈ 91.9 µM) | 16 (≈ 23 µM) | 64 (≈ 91.9 µM) | 2 (≈ 2.87 µM) | 4 (≈ 5.74 µM) | 32 (≈ 45.9 µM) | 16 (≈ 23 µM) | 0.5 (≈ 0.718 µM) | 0.5 (≈ 0.718 µM) | > 128 | 64 (≈ 91.9 µM) | 128 (≈ 184 µM) | > 128 | > 128 | 16 (≈ 23 µM) | 32 (≈ 45.9 µM) | 2 (≈ 2.87 µM) | 2 (≈ 2.87 µM) | 1 (≈ 1.44 µM) | MIC [18, 42]: 16 µg/mL (≈ 23 µM); MIC [19, 43]: ≤ 0.12 µg/mL; MIC [23, 44]: 4 µg/mL (≈ 5.74 µM); MIC [24, 45]: 8 µg/mL (≈ 11.5 µM); MIC [25, 46]: > 128 µg/mL
CCN1CCN(C(=O)NC(C(=O)NC2C(=O)N3C(C(=O)O)=C(CSc4nnc(-n5cccn5)n4N)CS[C@H]23)c2ccc(O)cc2)C(=O)C1=O (some centres unmarked) [Compound VII, 7-[2-(4-Ethyl-2,3-dioxo-1-piperazinecarboxamido)-2-(p-hydroxyphenyl)acetamido]-3-[4-amino-5-(1-pyrazolyl)-1,2,4-triazol-3-ylthiomethyl]-3-cephem-4-carboxylic acid] | 32 (≈ 45 µM) | 64 (≈ 89.9 µM) | 16 (≈ 22.5 µM) | 64 (≈ 89.9 µM) | 1 (≈ 1.41 µM) | 2 (≈ 2.81 µM) | 32 (≈ 45 µM) | 16 (≈ 22.5 µM) | 1 (≈ 1.41 µM) | 0.25 (≈ 0.351 µM) |  | 16 (≈ 22.5 µM) | 32 (≈ 45 µM) | 64 (≈ 89.9 µM) | 128 (≈ 180 µM) | 32 (≈ 45 µM) | 32 (≈ 45 µM) | 1 (≈ 1.41 µM) | 1 (≈ 1.41 µM) | 0.5 (≈ 0.703 µM) | MIC ([11]; MA751, Enterobacter cloacae MA75-1, agar dilution, 35° C., 18 hours, nutrient agar): > 128 µg/mL; MIC [18, 42]: 8 µg/mL (≈ 11.2 µM); MIC [19, 43]: ≤ 0.12 µg/mL; MIC [23, 44]: 2 µg/mL (≈ 2.81 µM); MIC [24, 45]: 4 µg/mL (≈ 5.62 µM); MIC [25, 46]: 128 µg/mL (≈ 180 µM)
CC(=O)OCC1=C(C(=O)O)N2C(=O)[C@@H](NC(=O)Cc3cccs3)[C@H]2SC1 [Compound X, Cephalothin, reference compound] |  |  |  |  |  |  |  |  |  |  | > 128 |  |  |  |  |  |  | 8 (≈ 20.2 µM) | 8 (≈ 20.2 µM) | 4 (≈ 10.1 µM) | MIC ([1]; Pseudomonas aeruginosa, G236, 18 h): > 128 µg/mL; MIC ([2]; Pseudomonas aeruginosa, PD05141, 18 h): > 128 µg/mL; MIC ([3]; Pseudomonas aeruginosa, 1244, 18 h): > 128 µg/mL; MIC ([4]; Pseudomonas aeruginosa, UCS7613, 18 h): > 128 µg/mL; MIC ([5]; Klebsiella pneumoniae, MA751, 18 h): 1 µg/mL (≈ 2.52 µM); MIC ([6]; Klebsiella pneumoniae, W752, 18 h): 2 µg/mL (≈ 5.04 µM); MIC ([7]; Klebsiella pneumoniae, W754, 18 h): 8 µg/mL (≈ 20.2 µM); MIC ([8]; Klebsiella pneumoniae, UR761, 18 h): 8 µg/mL (≈ 20.2 µM); MIC ([9]; Klebsiella pneumoniae, 18 h): 2 µg/mL (≈ 5.04 µM); MIC ([10]; UR763, 18 h): 2 µg/mL (≈ 5.04 µM); MIC ([12]; Enterobacter cloacae, OSU752, 18 h): > 128 µg/mL; MIC ([13]; Serratia, K101, 18 h): > 128 µg/mL; MIC ([14]; Serratia, K771, 18 h): > 128 µg/mL; MIC ([15]; Serratia, QHC772, 18 h): > 128 µg/mL; MIC ([17]; K72, 18 h): > 128 µg/mL; MIC ([18]; N761, 18 h): > 128 µg/mL; MIC ([19]; Escherichia coli, ESS2231, 18 h): ≤ 0.06 µg/mL; MIC ([23]; Staphylococcus aureus, Q741, 18 h): ≤ 0.06 µg/mL; MIC ([24]; Staphylococcus aureus, Q746, 18 h): 0.12 µg/mL (≈ 0.303 µM); MIC ([25]; Enterococcus, SM7715, 18 h): 32 µg/mL (≈ 80.7 µM)
